# Assay results as given in patent US9604975B2, “Indolyl-pyridone derivatives having checkpoint kinase 1 inhibitory activity” (Vernalis (R&D) Ltd., priority 2009, dated 2017).
# Molecular target: T1, CHK1 (Homo sapiens, UniProt O14757)
# T1 construct: His; purchased Invitrogen
# T1 sequence (O14757 1-476): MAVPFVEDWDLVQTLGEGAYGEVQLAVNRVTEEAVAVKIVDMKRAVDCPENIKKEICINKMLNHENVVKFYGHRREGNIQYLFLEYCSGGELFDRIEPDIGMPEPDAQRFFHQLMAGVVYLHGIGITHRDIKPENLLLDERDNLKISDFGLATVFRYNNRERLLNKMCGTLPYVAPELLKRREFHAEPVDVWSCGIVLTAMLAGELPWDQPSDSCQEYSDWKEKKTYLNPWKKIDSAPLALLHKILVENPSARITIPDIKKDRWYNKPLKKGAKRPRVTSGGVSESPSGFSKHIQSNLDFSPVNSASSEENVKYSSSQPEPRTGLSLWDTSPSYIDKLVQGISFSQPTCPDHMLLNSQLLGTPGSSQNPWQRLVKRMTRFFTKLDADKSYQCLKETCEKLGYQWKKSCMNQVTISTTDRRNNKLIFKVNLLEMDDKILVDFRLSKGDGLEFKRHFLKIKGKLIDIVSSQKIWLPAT
# Assay: CHK1 Enzyme Assay (phosphorylation of Chktide peptide, 33P-ATP filter assay)
# Type: biochemical
# Conditions: 12.5 nM His-CHK1, 0.01 mM ATP, 40 minutes at 30° C.; read-out: CHK1 Enzyme Activity (IC50 range)
# In short: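 Filter-binding radiometric readout of 33P incorporation into Chktide (14.8 μM), after a 40 min, 30 °C reaction at pH 7.5 (50 mM Hepes-NaOH, 0.1 mg/mL BSA). The reaction contained 12.5 nM His-tagged CHK1, inhibitor and 0.01 mM cold ATP plus labelled ATP.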
row,Compound,IC50
1,"Cc1ccc(Cn2cc(C(=O)Nc3c[nH]c(=O)c(-c4cc5cc(OCCN(C)C)ccc5[nH]4)c3)cn2)cc1 [Example 132, 1-(4-Methyl-benzyl)-1H-pyrazole-4-carboxylic acid {5-[5-(2-dimethylamino-ethoxy)-1H-indol-2-yl]-6-oxo-1,6-dihydro-pyridin-3-yl}-amide]",< 100 nM
2,"CCc1cccc(Cn2cc(C(=O)Nc3c[nH]c(=O)c(-c4cc5cc(OCCN6CCN(C)CC6)ccc5[nH]4)c3)cn2)c1 [Example 133, 1-(3-Ethyl-benzyl)-1H-pyrazole-4-carboxylic acid (5-{5-[2-(4-methyl-piperazin-1-yl)-ethoxy]-1H-indol-2-yl}-6-oxo-1,6-dihydro-pyridin-3-yl)-amide]",< 100 nM
3,"CCc1cccc(Cn2cc(C(=O)Nc3c[nH]c(=O)c(-c4cc5cc(OCCCN(CC)CC)ccc5[nH]4)c3)cn2)c1 [Example 136, 1-(3-Ethyl-benzyl)-1H-pyrazole-4-carboxylic acid {5-[5-(3-diethylamino-propoxy)-1H-indol-2-yl]-6-oxo-1,6-dihydro-pyridin-3-yl}-amide]",< 100 nM
4,"Cc1ccc(Cn2cc(C(=O)Nc3c[nH]c(=O)c(-c4cc5cc(OCC(C)(C)CN(C)C)ccc5[nH]4)c3)cn2)cc1 [Example 137, 1-(4-Methyl-benzyl)-1H-pyrazole-4-carboxylic acid {5-[5-(3-dimethylamino-2,2-dimethyl-propoxy)-1H-indol-2-yl]-6-oxo-1,6-dihydro-pyridin-3-yl}-amide]",< 100 nM
5,"CCN(CC)CCCOc1ccc2[nH]c(-c3cc(NC(=O)c4cnn(Cc5ccccc5)c4)c[nH]c3=O)cc2c1 [Example 139, 1-Benzyl-1H-pyrazole-4-carboxylic acid {5-[5-(3-diethylamino-propoxy)-1H-indol-2-yl]-6-oxo-1,6-dihydro-pyridin-3-yl}-amide]",< 100 nM

# Results, then the molecule that gave them:
row,IC50,Compound
1,< 100 nM,"Cc1ccc(Cn2cc(C(=O)Nc3c[nH]c(=O)c(-c4cc5cc(OCCN6CC(C)OC(C)C6)ccc5[nH]4)c3)cn2)cc1 (centres unmarked) [Example 131, 1-(4-Methyl-benzyl)-1H-pyrazole-4-carboxylic acid (5-{5-[2-(2,6-dimethyl-morpholin-4-yl)-ethoxy]-1H-indol-2-yl}-6-oxo-1,6-dihydro-pyridin-3-yl)-amide]"
2,< 100 nM,"CCc1cccc(Cn2cc(C(=O)Nc3c[nH]c(=O)c(-c4cc5cc(OCCCN6CCCCC6)ccc5[nH]4)c3)cn2)c1 [Example 134, 1-(3-Ethyl-benzyl)-1H-pyrazole-4-carboxylic acid {6-oxo-5-[5-(3-piperidin-1-yl-propoxy)-1H-indol-2-yl]-1,6-dihydro-pyridin-3-yl}-amide]"
3,< 100 nM,"CCc1cccc(Cn2cc(C(=O)Nc3c[nH]c(=O)c(-c4cc5cc(OCCN6CCCCC6)ccc5[nH]4)c3)cn2)c1 [Example 135, 1-(3-Ethyl-benzyl)-1H-pyrazole-4-carboxylic acid {6-oxo-5-[5-(2-piperidin-1-yl-ethoxy)-1H-indol-2-yl]-1,6-dihydro-pyridin-3-yl}-amide]"
4,< 100 nM,"CCc1cccc(Cn2cc(C(=O)Nc3c[nH]c(=O)c(-c4cc5cc(OCCN6CC(C)OC(C)C6)ccc5[nH]4)c3)cn2)c1 (centres unmarked) [Example 138, 1-(3-Ethyl-benzyl)-1H-pyrazole-4-carboxylic acid (5-{5-[2-(2,6-dimethyl-morpholin-4-yl)-ethoxy]1H-indol-2-yl}-6-oxo-1,6-dihydro-pyridin-3-yl)-amide]"
5,< 100 nM,"CN1CCN(CCCOc2ccc3[nH]c(-c4cc(NC(=O)c5cnn(Cc6ccccc6)c5)c[nH]c4=O)cc3c2)CC1 [Example 140, 1-Benzyl-1H-pyrazole-4-carboxylic acid {5-[5-[3-(4-methyl-piperazin-1-yl)-propoxy]-1H-indol-2-yl}-6-oxo-1,6-dihydro-pyridin-3-yl)-amide]"
6,< 100 nM,"CCN(CC)CCOc1ccc2[nH]c(-c3cc(NC(=O)c4cnn(Cc5ccccc5)c4)c[nH]c3=O)cc2c1 [Example 141, 1-Benzyl-1H-pyrazole-4-carboxylic acid {5-[5-(2-diethylamino-ethoxy)-1H-indol-2-yl]-6-oxo-1,6-dihydro-pyridin-3-yl}-amide]"
